From ChEMBL document CHEMBL3585240, “Synthesis and biological evaluation of caracasine acid derivatives” (Bioorg Med Chem, 2015) come the findings set out here.

Molecules are shown by their SMILES. The source made the active and inactive calls. The rule behind the calls is not given here.

Usually IC50 stands for the midpoint of a concentration-inhibition curve.

Experiment [1] has as its system Pseudomonas aeruginosa. Put plainly: Antibacterial activity against Pseudomonas aeruginosa ATCC 27853 assessed as growth inhibition at 15 ug after 24 hrs by disc agar diffusion method. It is filed as functional. As to conditions: ATCC 27853, 24 h, read-out: DIZ.
Experiment [2] relates to Bacillus cereus. Nature of the experiment: Antibacterial activity against Bacillus cereus ATCC 14579 assessed as growth inhibition at 15 ug after 24 hrs by disc agar diffusion method. As to conditions: ATCC 14579, 24 h, read-out: DIZ. It is filed as functional.
Experiment [3] deals with Staphylococcus aureus. Put plainly: Antibacterial activity against Staphylococcus aureus ATCC 25923 assessed as growth inhibition at 15 ug after 24 hrs by disc agar diffusion method. It is filed as functional. As to conditions: ATCC 25923, 24 h, read-out: DIZ.
Experiment [4] relates to Escherichia coli. Put plainly: Antibacterial activity against Escherichia coli ATCC 35218 assessed as growth inhibition at 15 ug after 24 hrs by disc agar diffusion method. It is filed as functional. As to conditions: ATCC 35218, 24 h, read-out: DIZ.
The test system of experiment [5] is Staphylococcus aureus. Put plainly: Antibacterial activity against Staphylococcus aureus ATCC 25923 assessed as growth inhibition at 20 ug after 24 hrs by disc agar diffusion method in presence of sulbactam. It is filed as functional. As to conditions: ATCC 25923, 24 h, read-out: DIZ.
Experiment [6] deals with Escherichia coli. Nature of the experiment: Antibacterial activity against Escherichia coli ATCC 35218 assessed as growth inhibition at 20 ug after 24 hrs by disc agar diffusion method in presence of sulbactam. It is filed as functional, organism-based. For orientation: In agar diffusion tests the substance spreads into inoculated agar from a disc or well.
The subject of experiment [7] is Pseudomonas aeruginosa. Nature of the experiment: Antibacterial activity against Pseudomonas aeruginosa ATCC 27853 assessed as growth inhibition at 20 ug after 24 hrs by disc agar diffusion method in presence of sulbactam. It is filed as functional. As to conditions: ATCC 27853, 24 h, read-out: DIZ.
For experiment [8], the system named is Bacillus cereus. Nature of the experiment: Antibacterial activity against Bacillus cereus ATCC 14579 assessed as growth inhibition at 20 ug after 24 hrs by disc agar diffusion method in presence of sulbactam. It is filed as functional, organism-based.
In experiment [9] the test system is Escherichia coli. Nature of the experiment: Antibacterial activity against Escherichia coli ATCC 35218 assessed as growth inhibition at 30 ug after 24 hrs by disc agar diffusion method. It is filed as functional. As to conditions: ATCC 35218, 24 h, read-out: DIZ.
The test system of experiment [10] is Bacillus cereus. Nature of the experiment: Antibacterial activity against Bacillus cereus ATCC 14579 assessed as growth inhibition at 30 ug after 24 hrs by disc agar diffusion method. It is filed as functional. As to conditions: ATCC 14579, 24 h, read-out: DIZ.
Experiment [11] deals with Staphylococcus aureus. Put plainly: Antibacterial activity against Staphylococcus aureus ATCC 25923 assessed as growth inhibition at 30 ug after 24 hrs by disc agar diffusion method. It is filed as functional. As to conditions: ATCC 25923, 24 h, read-out: DIZ.
For experiment [12], the system named is Pseudomonas aeruginosa. Put plainly: Antibacterial activity against Pseudomonas aeruginosa ATCC 27853 assessed as growth inhibition at 30 ug after 24 hrs by disc agar diffusion method. It is filed as functional. As to conditions: ATCC 27853, 24 h, read-out: DIZ.
Experiment [13] has as its system Escherichia coli. Put plainly: Antibacterial activity against Escherichia coli ATCC 35218 assessed as growth inhibition at 5 ug after 24 hrs by disc agar diffusion method. It is filed as functional. As to conditions: ATCC 35218, 24 h, read-out: DIZ.
Experiment [14] deals with Bacillus cereus. Put plainly: Antibacterial activity against Bacillus cereus ATCC 14579 assessed as growth inhibition at 5 ug after 24 hrs by disc agar diffusion method. It is filed as functional. As to conditions: ATCC 14579, 24 h, read-out: DIZ.
Experiment [15] deals with Pseudomonas aeruginosa. Put plainly: Antibacterial activity against Pseudomonas aeruginosa ATCC 27853 assessed as growth inhibition at 5 ug after 24 hrs by disc agar diffusion method. It is filed as functional. As to conditions: ATCC 27853, 24 h, read-out: DIZ.
Experiment [16] has as its system Staphylococcus aureus. Nature of the experiment: Antibacterial activity against Staphylococcus aureus ATCC 25923 assessed as growth inhibition at 5 ug after 24 hrs by disc agar diffusion method. It is filed as functional. As to conditions: ATCC 25923, 24 h, read-out: DIZ.
Experiment [17] is described as follows: Selectivity index, ratio of IC50 for human skin fibroblasts to IC50 for promastigote stage of Leishmania mexicana Bel21.
In the next experiment the test system is Trypanosoma cruzi. Put plainly: Antitrypanosomal activity against epimastigote stage of Trypanosoma cruzi CL Brener assessed as growth inhibition after 5 days by MTT assay. It is filed as functional. As to conditions: 120 h.
In experiment [18] the test system is Escherichia coli. Put plainly: Antibacterial activity against Escherichia coli ATCC 35218 assessed as growth inhibition at 2 mg/ml after 24 hrs by disc agar diffusion method. It is filed as functional. As to conditions: ATCC 35218, 24 h, read-out: DIZ.
Experiment [19] can be described thus: Selectivity index, ratio of IC50 for human skin fibroblasts to IC50 for epimastigote stage of Trypanosoma cruzi CL Brener.
The test system of experiment [20] is PC-3. Put plainly: Selectivity index, ratio of IC50 for human skin fibroblasts to IC50 for human PC3 cells.
For the next experiment, the system named is Leishmania mexicana. Nature of the experiment: Antileishmanial activity against promastigote stage of Leishmania mexicana Bel21 assessed as growth inhibition after 48 hrs by MTT assay. It is filed as functional, organism-based. As to conditions: Bel21, 48 h. For orientation: Tetrazolium assays rely on reduction of a dye to a coloured formazan, in cell work by metabolically active cells.

The test system of experiment [21] is PC-3. Nature of the experiment: Cytotoxicity against human PC3 cells assessed as growth inhibition after 72 hrs by MTT assay. It is filed as functional, cell-based. As to conditions: PC-3, 72 h.
Experiment [22] concerns Bacillus cereus. Put plainly: Antibacterial activity against Bacillus cereus ATCC 14579 assessed as growth inhibition at 2 mg/ml after 24 hrs by disc agar diffusion method. As to conditions: ATCC 14579, 24 h, read-out: DIZ. It is filed as functional.
Experiment [23] has as its system Pseudomonas aeruginosa. Nature of the experiment: Antibacterial activity against Pseudomonas aeruginosa ATCC 27853 assessed as growth inhibition at 2 mg/ml after 24 hrs by disc agar diffusion method. It is filed as functional.
Experiment [24] relates to Staphylococcus aureus. Nature of the experiment: Antibacterial activity against Staphylococcus aureus ATCC 25923 assessed as growth inhibition at 2 mg/ml after 24 hrs by disc agar diffusion method. It is filed as functional.
The test system of experiment [25] is MCF7. Nature of the experiment: Cytotoxicity against human MCF7 cells assessed as growth inhibition after 72 hrs by MTT assay. It is filed as functional, cell-based. As to conditions: MCF7, 72 h.
Experiment [26] has as its system MCF7. Put plainly: Selectivity index, ratio of IC50 for human skin fibroblasts to IC50 for human MCF7 cells.
Experiment [27] can be described thus: Cytotoxicity against human skin fibroblasts assessed as growth inhibition after 72 hrs by MTT assay. As to conditions: Skin fibroblast.

Take `CC[C@H]1OC(=O)C[C@@H](O)[C@H](C)[C@@H](O[C@@H]2O[C@H](C)[C@@H](O)[C@H](N(C)C)[C@H]2O)[C@@H](CCN2C[C@H](C)C[C@H](C)C2)C[C@@H](C)C(=O)/C=C/C(C)=C/[C@@H]1CO[C@@H]1O[C@H](C)[C@@H](O)[C@@H](OC)[C@H]1OC` [TILMICOSIN]: the zone of inhibition at 15 µg/disc in the experiment on Pseudomonas aeruginosa [1] was 18 mm; with Bacillus cereus [2] it was 32 mm; in the experiment with Staphylococcus aureus [3], 23 mm; with Escherichia coli [4], 18 mm.
In the case of `CC1(C)S[C@@H]2[C@H](NC(=O)[C@H](N)c3ccccc3)C(=O)N2[C@H]1C(=O)O` [AMPICILLIN], the figures for the zone of inhibition at 20 µg/disc in the experiment with Staphylococcus aureus [5] and with Pseudomonas aeruginosa [7] were 18 mm and 12 mm, respectively. Moreover, the “growth inhibition (GI)” value in the experiment on Escherichia coli [6] and in the experiment on Bacillus cereus [8] was “inactive” in each case.
In the case of `NCC[C@H](O)C(=O)N[C@@H]1C[C@H](N)[C@@H](O[C@H]2O[C@H](CN)[C@@H](O)[C@H](O)[C@H]2O)[C@H](O)[C@H]1O[C@H]1O[C@H](CO)[C@@H](O)[C@H](N)[C@H]1O` [AMIKACIN], the zone of inhibition at 30 µg/disc in the experiment on Escherichia coli [9] worked out at 22 mm; with Bacillus cereus [10] it was 32 mm; in the experiment on Staphylococcus aureus [11], 16 mm; with Pseudomonas aeruginosa [12] it was 16 mm.
`CC1COc2c(N3CCN(C)CC3)c(F)cc3c(=O)c(C(=O)O)cn1c23` (configuration not stated) [OFLOXACIN]: the zone of inhibition at 5 µg/disc with Escherichia coli [13] turned out to be 24 mm; in the experiment with Bacillus cereus [14], 28 mm; in the experiment on Pseudomonas aeruginosa [15], 15 mm; with Staphylococcus aureus [16] it was 25 mm.
As to `C=C1C(=O)[C@@]23CC[C@H](C(C)(O)CO)[C@@](C)(CCC(=O)O)[C@@H]2CC[C@H]1C3` (some centres not stated), the “Ratio IC50” value in experiment [17] turned out to be 0.6; in [19], 0.6; in the experiment on PC-3 [20], 1.2; in the experiment on MCF7 [26] it was 0.5. In addition, the concentration for half-maximal inhibition (IC50) in the experiment on Trypanosoma cruzi was determined as 42.6 µM; in the experiment on Leishmania mexicana it was 42.8 µM; in the experiment with PC-3 [21] it was 21.9 µM; with MCF7 [25], 46.3 µM; in experiment [27] it was 25.4 µM. The zone of inhibition at 2000 µg/mL in the experiment with Escherichia coli [18] was 15 mm; in the experiment with Bacillus cereus [22], 20 mm. The “growth inhibition (GI)” value with Pseudomonas aeruginosa [23] and with Staphylococcus aureus [24] was “inactive” each time.
On to `C=C1C(=O)[C@@]23CC[C@H](C(=C)C)[C@@](C)(CCC(=O)OC)[C@@H]2CC[C@H]1C3`, for which the “Ratio IC50” value in experiment [17] is on record as 3.3; in [19], 0.7; with PC-3 [20] it was 3.1; with MCF7 [26] it was 1. In addition, the 50% inhibitory concentration (IC50) came to 16.5 µM in the experiment with Trypanosoma cruzi; 3.4 µM in the experiment on Leishmania mexicana; 3.6 µM in the experiment with PC-3 [21]; 11.2 µM in the experiment on MCF7 [25]; 11.3 µM in experiment [27]. Moreover, the zone of inhibition at 2000 µg/mL with Escherichia coli [18] was 15 mm; with Bacillus cereus [22], 22 mm; with Pseudomonas aeruginosa [23] (ATCC 27853, 24 h, read-out: DIZ), 15 mm; with Staphylococcus aureus [24] (ATCC 25923, 24 h, read-out: DIZ), 12 mm.
